# Source: patent publication US6251917A, “Benzamidoaldehydes and their use as cysteine protease inhibitors” (BASF Aktiengesellschaft, priority 1996, dated 2001)
# pKi: −log10 of the molar value.
# Target: T1, Human μ-calpain (Homo sapiens, UniProt P07384)
# T1 construct: Human μ-calpain is isolated from erythrocytes; from tissue; host or cells: human erythrocytes
# T1 sequence (P07384 1-714): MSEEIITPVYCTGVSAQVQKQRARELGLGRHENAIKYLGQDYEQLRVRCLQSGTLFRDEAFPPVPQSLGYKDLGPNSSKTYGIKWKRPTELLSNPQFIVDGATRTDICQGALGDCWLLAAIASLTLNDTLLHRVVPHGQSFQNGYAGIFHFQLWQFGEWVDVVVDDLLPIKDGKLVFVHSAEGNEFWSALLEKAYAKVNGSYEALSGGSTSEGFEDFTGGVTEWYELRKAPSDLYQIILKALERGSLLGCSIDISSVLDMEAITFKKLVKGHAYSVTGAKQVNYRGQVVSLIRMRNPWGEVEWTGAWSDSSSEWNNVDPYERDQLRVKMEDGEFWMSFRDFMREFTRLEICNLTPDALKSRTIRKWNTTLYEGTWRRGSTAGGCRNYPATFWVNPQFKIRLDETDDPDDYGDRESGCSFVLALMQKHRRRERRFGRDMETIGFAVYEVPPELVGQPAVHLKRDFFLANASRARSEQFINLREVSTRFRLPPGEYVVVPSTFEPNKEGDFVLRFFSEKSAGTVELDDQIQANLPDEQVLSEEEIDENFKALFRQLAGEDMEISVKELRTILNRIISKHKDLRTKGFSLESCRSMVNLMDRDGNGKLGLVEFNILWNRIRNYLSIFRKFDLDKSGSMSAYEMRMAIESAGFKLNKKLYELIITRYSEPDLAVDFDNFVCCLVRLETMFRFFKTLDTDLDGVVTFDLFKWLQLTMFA
# T1 sequence (P04632 1-268 partner): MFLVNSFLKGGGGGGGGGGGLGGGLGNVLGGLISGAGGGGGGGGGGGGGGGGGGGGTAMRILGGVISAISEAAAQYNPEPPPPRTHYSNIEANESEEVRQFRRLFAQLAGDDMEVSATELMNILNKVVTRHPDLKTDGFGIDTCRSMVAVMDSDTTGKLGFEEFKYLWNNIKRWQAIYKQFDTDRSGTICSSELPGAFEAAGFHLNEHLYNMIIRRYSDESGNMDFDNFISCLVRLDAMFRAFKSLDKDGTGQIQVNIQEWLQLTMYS
# Assay: Calpain I and II test (fluorogenic substrate Suc-Leu-Tyr-AMC)
# Format: biochemical
# Experimental: The inhibitory properties of calpain inhibitors were studied in a buffer containing 50 mM of Tris-HCl, pH 7.5; 0.1 M of NaCl; 1 mM of dithiotreithol; 0.11 mM of CaCl2, using the fluorogenic calpain substrate Suc-Leu-Tyr-AMC (25 mM dissolved in DMSO, Bachem/Switzerland) (Sasaki et al. J. Biol. Chem. 1984, Vol. 259, 12489-12494). Human μ-calpain is isolated from erythrocytes similarly to the methods of Croall and DeMartino (BBA 1984, Vol. 788, 348-355) and Graybill et al. (Bioorg. & Med. Lett. 1995, Vol. 5, 387-392). After several chromatographic steps (DEAE-Sepharose, Phenyl-Sepharose, Superdex 200 and Blue-Sepharose), the enzyme is obtained in a purity of <[sic] 95%, according to SDS-PAGE, Western blot analysis and N-terminal sequencing. The fluorescence of the cleavage product 7-amino-4-methylcoumarin (AMC) is monitored in a Spex-Fluorolog fluorimeter at λex =380 nm an λem =460 nm. Over a measured range of 60 min, the cleavage of the substrate is linear and the autocatalytic activity of calpain is low when the experiments are carried out at 12° C. (see Chatterjee et al. 1996, Bioorg. & Med. Chem. Lett., Vol 6, 1619-1622). […]
# In a typical experiment, 10 μl of substrate (250 μm final) and then 10 μl of μ-calpain (2 μg/ml final, i.e. 18 nM) are added to a 1 ml cuvette containing buffer. The calpain-mediated cleavage of the substrate is measured for 15 to 20 min. […]
structure (smiles),measurement,setting,value
"O=C[C@H](Cc1ccccc1)NC(=O)c1ccccc1-c1ccccc1 [Example 30, (S)-2-Phenyl-N-(3-phenylpropan-1-al-2-yl)benzamide]",effectiveness compared with N-(1-3-phenylpropan-1-al-2-yl)benzamide,"comparison with literature compound (M. R. Angelastro et al., J. Med. Chem. 1990, 33, 11-13)",significantly more effective
same,pKi,"reversible inhibition, 12° C., pH 7.5",> 6.30
